Measurements: ChEMBL document CHEMBL4308841, “Synthesis, in vitro antiproliferative activity, and kinase inhibitory effects of pyrazole-containing diarylureas and diarylamides” (Eur J Med Chem, 2018)

What was measured:
A549 = test: Growth inhibition of human A549/ATCC cells incubated for 48 hrs by sulforhodamine B assay; assay type: functional, cell-based; details: A549, 48 h
KM12 = test: Growth inhibition of human KM12 cells incubated for 48 hrs by sulforhodamine B assay; assay type: functional, cell-based; details: KM12, 48 h
SNB-75 = test: Growth inhibition of human SNB75 cells incubated for 48 hrs by sulforhodamine B assay; assay type: functional, cell-based; details: SNB-75, 48 h
SK-MEL-28 = test: Growth inhibition of human SK-MEL-28 cells incubated for 48 hrs by sulforhodamine B assay; assay type: functional, cell-based; details: SK-MEL-28, 48 h
UACC-257 = test: Growth inhibition of human UACC257 cells incubated for 48 hrs by sulforhodamine B assay; assay type: functional, cell-based; details: UACC-257, 48 h
UO-31 = test: Growth inhibition of human UO31 cells incubated for 48 hrs by sulforhodamine B assay; assay type: functional, cell-based; details: UO-31, 48 h
MDA-MB-231 = test: Growth inhibition of human MDA-MB-231 cells incubated for 48 hrs by sulforhodamine B assay; assay type: functional, cell-based; details: MDA-MB-231, 48 h
T47D = test: Growth inhibition of human T47D cells incubated for 48 hrs by sulforhodamine B assay; assay type: functional, cell-based
HL-60(TB) [1] = test: Growth inhibition of human HL-60(TB) cells assessed as cell growth at 0.01 uM incubated for 48 hrs by sulforhodamine B assay relative to control; assay type: functional; details: HL-60, 48 h, read-out: Activity
K562 = test: Growth inhibition of human K562 cells assessed as cell growth at 0.01 uM incubated for 48 hrs by sulforhodamine B assay relative to control; assay type: functional; details: K562, 48 h, read-out: Activity
HT-29 [2] = test: Growth inhibition of human HT-29 cells assessed as cell growth at 0.01 uM incubated for 48 hrs by sulforhodamine B assay relative to control; assay type: functional; details: HT-29, 48 h, read-out: Activity
Malme-3M = test: Growth inhibition of human MALME-3M cells assessed as cell growth at 0.01 uM incubated for 48 hrs by sulforhodamine B assay relative to control; assay type: functional; details: read-out: Activity
CAKI-1 = test: Growth inhibition of human Caki1 cells assessed as cell growth at 0.01 uM incubated for 48 hrs by sulforhodamine B assay relative to control; assay type: functional; details: CAKI-1, 48 h, read-out: Activity
RXF 393 = test: Growth inhibition of human RXF393 cells assessed as cell growth at 0.01 uM incubated for 48 hrs by sulforhodamine B assay relative to control; assay type: functional; details: RXF 393, 48 h, read-out: Activity
MOLT-4 [3] = test: Growth inhibition of human MOLT4 cells assessed as cell growth at 0.1 uM incubated for 48 hrs by sulforhodamine B assay relative to control; assay type: functional; details: MOLT-4, 48 h, read-out: Activity
U-251 = test: Growth inhibition of human U251 cells assessed as cell growth at 0.1 uM incubated for 48 hrs by sulforhodamine B assay relative to control; assay type: functional; details: U-251, 48 h, read-out: Activity
IGROV-1 = test: Growth inhibition of human IGROV1 cells assessed as cell growth at 0.1 uM incubated for 48 hrs by sulforhodamine B assay relative to control; assay type: functional; details: IGROV-1, 48 h, read-out: Activity
HL-60(TB) [4] = test: Growth inhibition of human HL-60(TB) cells assessed as cell growth at 1 uM incubated for 48 hrs by sulforhodamine B assay relative to control; assay type: functional; details: HL-60, 48 h, read-out: Activity
HT-29 [5] = test: Growth inhibition of human HT-29 cells assessed as cell growth at 1 uM incubated for 48 hrs by sulforhodamine B assay relative to control; assay type: functional; details: HT-29, 48 h, read-out: Activity
M14 = test: Growth inhibition of human M14 cells assessed as cell growth at 1 uM incubated for 48 hrs by sulforhodamine B assay relative to control; assay type: functional; details: M14, 48 h, read-out: Activity
PC-3 = test: Growth inhibition of human PC3 cells assessed as cell growth at 1 uM incubated for 48 hrs by sulforhodamine B assay relative to control; assay type: functional; details: PC-3, 48 h, read-out: Activity
MCF7 = test: Growth inhibition of human MCF7 cells assessed as cell growth at 1 uM incubated for 48 hrs by sulforhodamine B assay relative to control; assay type: functional; details: MCF7, 48 h, read-out: Activity
MDA-MB-468 = test: Growth inhibition of human MDA-MB-468 cells assessed as cell growth at 1 uM incubated for 48 hrs by sulforhodamine B assay relative to control; assay type: functional; details: MDA-MB-468, 48 h, read-out: Activity
CCRF-CEM = test: Growth inhibition of human CCRF-CEM cells assessed as cell growth at 100 uM incubated for 48 hrs by sulforhodamine B assay relative to control; assay type: functional; details: read-out: Activity
HL-60(TB) [6] = test: Growth inhibition of human HL-60(TB) cells assessed as cell growth at 100 uM incubated for 48 hrs by sulforhodamine B assay relative to control; assay type: functional; details: HL-60, 48 h, read-out: Activity
MOLT-4 [7] = test: Growth inhibition of human MOLT4 cells assessed as cell growth at 100 uM incubated for 48 hrs by sulforhodamine B assay relative to control; assay type: functional; details: MOLT-4, 48 h, read-out: Activity
SR = test: Growth inhibition of human SR cells assessed as cell growth at 100 uM incubated for 48 hrs by sulforhodamine B assay relative to control; assay type: functional; details: read-out: Activity
HCT-116 = test: Growth inhibition of human HCT116 cells assessed as cell growth at 100 uM incubated for 48 hrs by sulforhodamine B assay relative to control; assay type: functional; details: HCT-116, 48 h, read-out: Activity
NCI/ADR-RES = test: Growth inhibition of human NCI/ADR-RES cells assessed as cell growth at 100 uM incubated for 48 hrs by sulforhodamine B assay relative to control; assay type: functional; details: read-out: Activity
[8] = read-out: LC50 (the source's name)
[9] = read-out: pLC50 (the source's name) (converted)

## COc1cc(Cl)cc(-c2nn(-c3cccc(NC(=O)c4cccc(C(F)(F)F)c4)c3)cc2-c2ccncc2)c1
A549
  IC50: 3.62 µM
A549; read-out: GI50
  GI50: 3.52 µM
A549; [8]
  CC50: > 100 µM
A549; read-out: TGI
  TGI: > 100 µM
A549; read-out: pGI50 (converted)
  GI50: 3.63 µM
A549; [9]
  CC50: > 100 µM
A549; read-out: pTGI (converted)
  TGI: > 100 µM
KM12; read-out: GI50
  GI50: 4.53 µM
KM12; [8]
  CC50: > 100 µM
KM12; read-out: TGI
  TGI: > 100 µM
KM12; read-out: pGI50 (converted)
  GI50: 4.57 µM
KM12; [9]
  CC50: > 100 µM
KM12; read-out: pTGI (converted)
  TGI: > 100 µM
SNB-75; read-out: GI50
  GI50: 5.52 µM
SNB-75; [8]
  CC50: > 100 µM
SNB-75; read-out: TGI
  TGI: > 100 µM
SNB-75; read-out: pGI50 (converted)
  GI50: 7.08 µM
SNB-75; [9]
  CC50: > 100 µM
SNB-75; read-out: pTGI (converted)
  TGI: > 100 µM
SK-MEL-28; read-out: GI50
  GI50: > 100 µM
SK-MEL-28; [8]
  CC50: > 100 µM
SK-MEL-28; read-out: TGI
  TGI: > 100 µM
SK-MEL-28; read-out: pGI50 (converted)
  GI50: > 100 µM
SK-MEL-28; [9]
  CC50: > 100 µM
SK-MEL-28; read-out: pTGI (converted)
  TGI: > 100 µM
UACC-257; read-out: GI50
  GI50: > 100 µM
UACC-257; [8]
  CC50: > 100 µM
UACC-257; read-out: TGI
  TGI: > 100 µM
UACC-257; read-out: pGI50 (converted)
  GI50: > 100 µM
UACC-257; [9]
  CC50: > 100 µM
UACC-257; read-out: pTGI (converted)
  TGI: > 100 µM
UO-31
  IC50: 2.71 µM
UO-31; read-out: GI50
  GI50: 2.71 µM
UO-31; [8]
  CC50: > 100 µM
UO-31; read-out: TGI
  TGI: > 100 µM
UO-31; read-out: pGI50 (converted)
  GI50: 2.69 µM
UO-31; [9]
  CC50: > 100 µM
UO-31; read-out: pTGI (converted)
  TGI: > 100 µM
MDA-MB-231; read-out: GI50
  GI50: 1.38 µM
MDA-MB-231; [8]
  CC50: > 100 µM
MDA-MB-231; read-out: TGI
  TGI: 99.7 µM
MDA-MB-231; read-out: pGI50 (converted)
  GI50: 1.38 µM
MDA-MB-231; [9]
  CC50: > 100 µM
MDA-MB-231; read-out: pTGI (converted)
  TGI: 10 µM
T47D; read-out: GI50
  GI50: 4.59 µM
T47D; [8]
  CC50: > 100 µM
T47D; read-out: TGI
  TGI: > 100 µM
T47D; read-out: pGI50 (converted)
  GI50: 4.68 µM
T47D; [9]
  CC50: > 100 µM
T47D; read-out: pTGI (converted)
  TGI: > 100 µM
HL-60(TB) [1]
  growth at 0.01 µM: 59%
K562
  growth at 0.01 µM: 108%
HT-29 [2]
  growth at 0.01 µM: 90%
Malme-3M
  growth at 0.01 µM: 58%
CAKI-1
  growth at 0.01 µM: 95%
RXF 393
  growth at 0.01 µM: 58%
MOLT-4 [3]
  growth at 0.1 µM: 95%
U-251
  growth at 0.1 µM: 91%
IGROV-1
  growth at 0.1 µM: 100%
HL-60(TB) [4]
  growth at 1 µM: 105%
HT-29 [5]
  growth at 1 µM: 70%
M14
  growth at 1 µM: 83%
PC-3
  growth at 1 µM: 73%
MCF7
  growth at 1 µM: 57%
MDA-MB-468
  growth at 1 µM: 50%
CCRF-CEM
  growth at 100 µM: 32%
HL-60(TB) [6]
  growth at 100 µM: 49%
MOLT-4 [7]
  growth at 100 µM: 27%
SR
  growth at 100 µM: 15%
HCT-116
  growth at 100 µM: 22%
NCI/ADR-RES
  growth at 100 µM: 31%
